Entries after “also recorded” stand apart in the source; their conditions may differ.
Columns and labels:
[1] = test system: Mia-PaCa2, HPAC and PANC-1 cells; experiment: Proliferation of pancreatic cancer cell lines, 24 hours (confirmed by XTT assay); assay type: cell-based; settings: p<0.001, one way ANOVA
Description: Mia-PaCa2, PANC-1, HPAC and ASPC-1 cell lines (ATCC, Manassas, Va.) were cultured according to the ATCC manual. Medium was supplemented with 10% fetal bovine serum (Invitrogen Corporation, Carlsbad, Calif.), 50 units/ml penicillin, and 50 μg/ml streptomycin (Life Technologies, Inc., Frederick, Md.). Cells were incubated at 37° C. in a humidified 5% CO2 atmosphere.

Hsp90 client proteins [2] = experiment: Western blot of Hsp90 client proteins in MKN45 cells; assay type: cell-based
Hsp90 client proteins [3] = experiment: Western blot of Hsp90 client proteins in AGS gastric cancer cells; assay type: cell-based
Description: Ganetespib was also evaluated for its effects on Hsp90 client proteins in AGS gastric cancer cells by western blot. […] Similar to the observation in melanoma cells, exposure to ganetespib […] BRAF expression.

[4] = test system: Chk1 and Chk2 phosphorylation; experiment: Western blot of Chk1 and Chk2 phosphorylation after bleomycin in Detroit 562 cells; assay type: cell-based; settings: Detroit 562, 100 nM ganetespib 24 hours prior to bleomycin (5 μM)
Description: Protein expression was measured at the indicated time points after bleomycin treatment.
Cell extracts from Detroit 562 head and neck cancer cells were treated with 100 nM of ganetespib 24 hours prior to receiving the DNA damaging agent bleomycin (5 μM). Protein expression was measured at the indicated time points after bleomycin treatment.

A549 NSCLC cells = experiment: Mouse xenograft tumor model, ganetespib and BEZ235 (Example 9); assay type: in vivo, mice; settings: ganetespib 50 mg/kg weekly i.v.; BEZ235 10 mg/kg 5 times a week p.o.; particularly at later time points; FIG. 8
Description: Female immunodeficient CD-1 (nude) mice (Charles River Laboratories, Wilmington, Mass.) were maintained in a pathogen-free environment, and all in vivo procedures were approved by the Synta Pharmaceuticals Corp. Institutional Animal Care and Use Committee. A549 NSCLC cells (7.5×10^6) were subcutaneously implanted into the animals. Mice bearing established tumors (100-200 mm^3) were randomized into treatment groups of 8 and i.v. dosed via the tail vein with either vehicle, ganetespib formulated in 10/18 DRD (10% DMSO, 18% Cremophor RH 40, 3.6% dextrose, 68.4% water) or p.o. dosed with BEZ235 formulated in PEG300/NMP (90% PEG300, 10% N-Methylpyrrolidone). Animals were treated with ganetespib at 50 mg/kg weekly or BEZ235 at 10 mg/kg 5 times a week, either alone or in combination. Tumor growth inhibition was determined as described previously. See Proia et al, PLoS One. 2011; 6(4):e18552.

[5] = test system: KRAS substrates, including BRAF and CRAF; experiment: KRAS substrates at the molecular level in KRAS mutant NSCLC cells; assay type: cell-based
[6] = Phase 2 study in solid tumors, twice-weekly infusion (safety, PK, response); assay type: in vivo, human; settings: human, plasma, intravenous; patients, 1 hr infusion; read-out: Mean terminal half-life
Description: (§1) Patients with solid tumors who had exhausted standard treatment options received ganetespib as a 1 hr infusion twice-weekly for 3 weeks (weeks) of a 28 day cycle until disease progression. Serial PK and pharmacodynamic samples were obtained during cycle 1. Safety assessments included frequency and grade of adverse events (AEs), laboratory parameters and ECG changes.

solid tumors = experiment: as above; assay type: in vivo, human
Description: as §1

[7] = test system: SUM149 inflammatory breast cancer (IBC) cells; experiment: 24 hr viability assay, inflammatory breast cancer cells; assay type: cell-based; settings: 24 hr after exposure, FIG. 2
Description: Ganetespib was assayed in inflammatory breast cancer (IBC), a rare but aggressive form of breast cancer distinct from the subtypes presented above.

MKN-45 = experiment: 72 hr viability by Syto60, gastric cell line; assay type: cell-based; settings: Homo sapiens, Syto60 (lower), read-out: ganetespib IC50
Description: (§2) Many of the oncoproteins associated with gastric cancer and Hsp90 client proteins including HER2, MET, RAS and the FGFR family. Ganetespib was evaluated for its effect on the growth of AGS (wt-p53 and mut-KRAS) and MKN45 (wt-p53, wt-KRAS, MET amplified) gastric cancer cells. Cells were treated for 72 hr and viability determined by CTG (upper) or Syto60 (lower).

AGS = experiment: 72 hr viability by Syto60, gastric cell line; assay type: cell-based; settings: Homo sapiens, Syto60 (lower), read-out: ganetespib IC50
Description: as §2

[8] = test system: MKN45 (wt-p53, wt-KRAS, MET amplified); experiment: 72 hr viability by CTG, gastric cancer cells; assay type: cell-based; settings: Homo sapiens, MKN-45, viability by CTG (upper)
Description: (§3) Many of the oncoproteins associated with gastric cancer and Hsp90 client proteins including HER2, MET, RAS and the FGFR family. Ganetespib was evaluated for its effect on the growth of AGS (wt-p53 and mut-KRAS) and MKN45 (wt-p53, wt-KRAS, MET amplified) gastric cancer cells.

[9] = test system: AGS (wt-p53 and mut-KRAS); experiment: 72 hr viability by CTG, gastric cancer cells; assay type: cell-based; settings: viability by CTG (upper)
Description: as §3

SMILES: CC(C)c1cc(-c2nnc(O)n2-c2ccc3c(ccn3C)c2)c(O)cc1O [ganetespib]
- Proliferation of Mia-PaCa2, HPAC and PANC-1 cells [1]: decreases proliferation
- Effect on Hsp90 client proteins by western blot (Hsp90 client proteins [2]): complete degradation of MET and IGF-IR
- Effect on Hsp90 client proteins by western blot (Hsp90 client proteins [3]): abolished the expression of EGFR, IGF-IR, C-RAF
- Bleomycin-induced Chk1 and Chk2 phosphorylation [4]: blocked
- Average tumor volume as compared to vehicle (A549 NSCLC cells): significantly reduced
- Effect on KRAS substrates [5]: induced the destabilization of several KRAS substrates, including BRAF and CRAF
- half-life [6]: 10 to 14 h
- NSCLC patients with durable SD, with tumor shrinkage (solid tumors; 6 months of treatment): 2 patients
- DLTs (elevated transaminases) (solid tumors; in the 10 and 144 mg/m^2 cohorts): Two
- Volume of distribution (solid tumors; patients): greater than total body water
- PK linearity (solid tumors; patients, doses from 2-144 mg/m^2): linear PK
- Accumulation in plasma (solid tumors; patients, twice-weekly dosing): no accumulation in plasma
- Tolerability (solid tumors; twice-weekly administration): absence of severe liver, ocular, cardiac and renal toxicity; also recorded: well-tolerated
- Response by RECIST in a patient with metastatic melanoma (solid tumors; twice-weekly dosing): confirmed durable PR
- AEs reported in ≧20% of patients (solid tumors; twice-weekly, majority mild to moderate): fatigue, diarrhea, nausea, anemia, abdominal pain, constipation, anorexia, vomiting, and headache
- Anticancer activity against SUM149 cells [7]: considerable anticancer activity
- IC50 (MKN-45): 8 nM
- IC50 (AGS): 5 nM
- IC50 [8]: 0.5 nM
- IC50 [9]: 1.5 nM

From patent publication US20150253330A1, “PRE-SELECTION OF SUBJECTS FOR THERAPEUTIC TREATMENT WITH AN HSP90 INHIBITOR BASED ON HYPOXIC STATUS” (Synta Pharmaceuticals Corp., priority 2012, published 2015)
